Source: US4937230A, “Method of healing wounds in horses” (ProCyte Corporation, priority 1987, dated 1990)

Tests used:
[1] = test system: full-thickness skin loss wound; assay: Full-thickness skin loss, topical treatment of horse I; assay type: in vivo
Text: History: Horse I suffered from a traumatic injury to the anterior mid-calf aspect of the rear leg, caused by striking a fence while jumping. A flap of skin initially remained over the approximately 2.5 inch diameter wound. The leg was bandaged for a brief time, and the dead skin flap removed within 10 days post-injury. The leg appeared swollen and inflamed.
Inflammation and swelling had also diminished.

barbed-wire cuts/gashes = assay: Barbed-wire cuts/gashes, topical treatment of horses E, F and G; assay type: in vivo, horse
Text: (1) History: The skin of the hoof area of horse E was badly torn from barbed-wire.
Treatment: A cream base containing 0.4% GHL:CU and 6% DMSO was applied to the area 2 times/day.
(2) History: A 33-year-old horse (horse F) received a serious barbed wire wound to the lower leg directly into the cleft of the hoof. The wound area was ripped open, thereby dividing the hoof.
Treatment: A cream base with 0.4% GHL-CU and 6% DMSO was applied 1-2 times/day.
(3) History: A very deep barbed-wire induced gash on the upper rear leg of horse G was originally treated with antibiotics and closed with stitches.
Treatment: A cream containing 0.4% GHL-CU and 6% DMSO was applied for 2 weeks (1-2 times/day).

[2] = test system: infected fly bites (raised nodules in the saddle region); assay: Saddle sores from fly bites, topical treatment of horse A; assay type: in vivo; conditions: cream base 0.4% GHL-CU and 6% DMSO, topical twice/daily
Text: History: Horse A suffered from fly bites which became infected and developed into irritating raised nodules located on the back in the saddle region over a period of 8 weeks.
Treatment: A cream base containing 0.4% GHL-CU and 6% DMSO was applied twice/daily to the nodules. Within 4-5 days, softening of the nodules occurred along with diminishment of irritation and inflammation. Total healing occurred within 10-14 days.

[3] = test system: granulation tissue ("proud flesh"); assay: Excessive accumulation of granulation tissue (proud flesh), topical treatment of horse K; assay type: in vivo; conditions: cream base 0.4% GHL:CU and 3% DMSO for one month
Text: History: An accumulation of unsightly granulation tissue or granuloma (known as "proud flesh") was present over a poorly healed wound (sight unspecified) in horse K. Typically, proud flesh often accompanies an insufficiently healing wound, appearing bubbly, swollen and nodular.

[4] = test system: denuded area after injury (poor regrowth of hair); assay: Denuded area after injury, topical treatment of horses B and C; assay type: in vivo, horse; conditions: cream base 0.4% GHL-CU and 6% DMSO
Method: (1) History: Approximately 2 months following wounding (lower leg, cause unspecified) healing occurred in horse B with poor regrowth of hair. The affected area measured approximately 2 square inches
Treatment: A cream base containing 0.4% GHL-CU and 6% DMSO was applied to the denuded area 3-4 times/week. Substantial hair growth was noted after treatment for approximately 2-3 weeks.
(2) History: An ulcerative sore on the back of Horse C below the saddle horn area (withers) was treated by a veterinarian using antibiotics and an antibacterial spray. […] Hair was absent from the partially healed sore.
Treatment: A cream base consisting of 0.4% GHL-CU and 6% DMSO was applied 1-2 times/day. Within 3 weeks, the infected ulcerative area resolved and hair was noted to be covering the wound.

puncture wound = assay: Puncture wound, topical treatment of horse D; assay type: in vivo; conditions: upper leg, cream base 0.4% GHL-CU and 3% DMSO, twice/day
Method: History: A puncture wound of unknown origin occurred to the upper leg of horse D. No traditional therapy (antibiotics) was used prior to treatment.
Treatment: A cream base containing 0.4% GHL-CU and 3% DMSO was applied to the wound site shortly after the wound was discovered. […] The treatment was performed twice/day.

rope burn = assay: Rope burn, topical treatment of horse H; assay type: in vivo; conditions: rear ankle, cream base 0.4% GHL-CU and 6% DMSO, 2 times/day
Text: The rope burn had removed all hair and skin. A veterinarian treated the burn with antibiotics and a nitrofurosone ointment. The scab was removed daily with washing. The injury responded, although quite slowly.
Treatment: A cream base with 0.4% GHL-CU and 6% DMSO was applied to the burn 2 times/day. The scab was left on the area during the treatment period.

[5] = test system: ulcerating pressure-induced injury; assay: Ulcerating pressure-induced injury, topical treatment of horse J; assay type: in vivo
Text: History: A 12-year-old thoroughbred (horse J) developed a large ulcer (2 inch diameter) on top of the withers (back beneath saddle horn area) A veterinarian treated the wound with antibiotics and an antibacterial spray. […] The wound continued to be large and inflamed after 3-4 months
Treatment: A cream containing 0.4% GHL:Cu with 6% DMSO was applied 1-2 times/day. The old scab fell off after a few days and was replaced by a new scab. After 2 weeks, the infection cleared up and ulceration began to be replaced by a skin covering. […] Approximately 1 month after beginning treatment, the ulcerative injury had resolved totally.

[6] = horse F, cream base 0.4% GHL-CU and 6% DMSO, 1-2 times/day

Glycyl-L-Histidyl-L-Lysine octyl ester:Copper (II) [GHL-octyl ester Cu]
wound size under continued treatment ([1]; 1 time/day over the following week): continued to decrease in size
reduction of wound size ([1]; about 2.5 inch diameter wound, cream base 0.4% GHL-octyl ester Cu and 6% DMSO, 2 times/day for 2 weeks): ~50%
inflammation and swelling ([1]; after 2 weeks, 2 times/day): diminished
scab formation ([1]; after 2 weeks, 2 times/day): a scab had formed over the area

NC(=O)N/N=C/c1ccc([N+](=O)[O-])o1 [nitrofurosone, reference compound]
effect of prior treatment on the dehisced wound (barbed-wire cuts/gashes; horse G, 0.2% antibacterial agent): ineffective

Glycyl-L-Histidy-L-Lysine: Copper(II) [GHL:Cu]
time to softening of the nodules with diminishment of irritation and inflammation [2]: 4 to 5 days
time to total healing [2]: 10 to 14 days
swelling and appearance of proud flesh [3]: notable reduction in swelling and improved appearance
treatment time after which substantial hair growth was noted ([4]; horse B, lower leg, about 2 square inches, 3-4 times/week): 2-3 weeks
time to resolution of infected ulcerative area with hair covering the wound ([4]; horse C, ulcerative sore on the back, 1-2 times/day): ≤ 3 weeks
healing of the wound (puncture wound): healed within a few days
infection of the wound (puncture wound): did not become infected
hair regrowth (rope burn): hair grew back over the area
healing of the wound (rope burn; scab left on): healed up within a week
time until infection cleared up and ulceration began to be replaced by skin covering ([5]; 2 inch diameter ulcer on withers, cream 0.4% GHL:Cu with 6% DMSO, 1-2 times/day): 2 weeks
time until ulcerative injury had resolved totally ([5]; cream 0.4% GHL:Cu with 6% DMSO, 1-2 times/day): Approximately 1 month
hair growth over the area ([5]; shortly after 2 weeks): hair began growing over the area
time until the wound scabbed over (barbed-wire cuts/gashes; horse E, hoof area, cream base 0.4% GHL:CU and 6% DMSO, 2 times/day): 5 days
examination of the wound 3 weeks after treatment (barbed-wire cuts/gashes; horse E, hoof area, treatment halted after 5 days): no evidence of infection
new scab formation with reduction in wound size (barbed-wire cuts/gashes; horse F, lower leg/hoof cleft, cream base 0.4% GHL-CU and 6% DMSO, 1-2 times/day): within a few days
time to almost total healing (barbed-wire cuts/gashes; [6]): ≤ 4 weeks
wound course over 2 weeks of treatment (barbed-wire cuts/gashes; [6]): continuation of wound reduction and scab covering
scab formation over open, raw tissue (barbed-wire cuts/gashes; horse G, dehisced gash upper rear leg, 6 inches x 1 inch, cream 0.4% GHL-CU and 6% DMSO, 1-2 times/day for 2 weeks): A scab formed quickly
wound closure (barbed-wire cuts/gashes; horse G, cream 0.4% GHL-CU and 6% DMSO, 1-2 times/day for 2 weeks): Within weeks, the wound had begun to close and appeared healthy
granulation of the gash (barbed-wire cuts/gashes; horse G, noted when scab was removed during cleaning): granulated considerably
